Test system: rice flat sedge
Test: Test Example 3: herbicidal effect by foliage application, Wagner pot (Table 18, symbol E)
Assay type: in vivo, rice flat sedge (Cyperus iria)
Details: 320 g/ha
How it was run: (§1)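 Plants were sown in alluvial soil held under 0.1–0.5 cm standing water and grown 14 days in a greenhouse at 25–30 °C. An emulsifiable formulation, water-diluted to the set dose, was then sprayed onto the foliage, and effects were scored three weeks later using previously defined criteria.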

Compound | herbicidal effect on E (rice flat sedge), rating 0-5
CCCC(=O)Oc1c(C)nn(C)c(=O)c1-c1c(-c2ccc(C(C)=NOC)cc2)sc2ccc(F)cc12 [2-080] | 5 (Herbicidal rate of 90% or more (almost completely withered))
CCOc1cc(F)ccc1-c1sc2ccc(F)cc2c1-c1c(O)c(C)nn(C)c1=O [2-084] | 5 (Herbicidal rate of 90% or more (almost completely withered))

Test system: barnyard grass
Test: Test Example 5: herbicidal effect by foliage application, plastic box (Table 20, symbol H)
Assay type: in vivo, barnyard grass (Echinochloa crus-galli)
Details: foliage application, 320 g/ha, evaluated three weeks after application
How it was run: (§2)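 Plants sown in sterilized diluvial soil and grown 14 days in a greenhouse at 25° C to 30° C, then sprayed on the foliage with the compound's emulsion diluted in water to a predetermined herbicide amount. Injury to weeds and crops scored three weeks after application on a visual rating scale.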

Compound | herbicidal effect on H: barnyard grass
CCCC(=O)Oc1c(C)nn(C)c(=O)c1-c1c(-c2ccc(C(C)=NOC)cc2)sc2ccc(F)cc12 [2-080] | 5 (Herbicidal rate of 90% or more (almost completely withered))
CCOc1cc(F)ccc1-c1sc2ccc(F)cc2c1-c1c(O)c(C)nn(C)c1=O [2-084] | 5 (Herbicidal rate of 90% or more (almost completely withered))

Test system: Chinese sprangletop
Test: Test Example 3: herbicidal effect by foliage application, Wagner pot (Table 18, symbol D)
Assay type: in vivo, chinese sprangletop (Leptochloa chinensis)
Details: 320 g/ha
How it was run: as §1

Compound | herbicidal effect on D (Chinese sprangletop), rating 0-5
CCCC(=O)Oc1c(C)nn(C)c(=O)c1-c1c(-c2ccc(C(C)=NOC)cc2)sc2ccc(F)cc12 [2-080] | 5 (Herbicidal rate of 90% or more (almost completely withered))
CCOc1cc(F)ccc1-c1sc2ccc(F)cc2c1-c1c(O)c(C)nn(C)c1=O [2-084] | 4 (Herbicidal rate of 70% or more and less than 90%)

Test system: oval-leafed pondweed
Test: Test Example 1: herbicidal activity, application before weed generation under submerged conditions (Table 16, symbol C)
Assay type: in vivo, oval-leafed pondweed (Monochoria vaginalis)
Details: 320 g/ha applied herbicide
How it was run: (§3)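 Submerged Wagner pots (alluvial soil, 4 cm water) sown with weed seeds and planted with 2.5-leaf rice seedlings; emulsifiable concentrate diluted in water applied to water surface on sowing day. Held in greenhouse at 25-30 °C; injury scored 0-5 by herbicidal rate after three weeks.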

Compound | Herbicidal effect on C: oval-leafed pondweed (grade 0-5)
CCCC(=O)Oc1c(C)nn(C)c(=O)c1-c1c(-c2ccc(C(C)=NOC)cc2)sc2ccc(F)cc12 [2-080] | 4 (Herbicidal rate of 70% or more and less than 90%)
CCOc1cc(F)ccc1-c1sc2ccc(F)cc2c1-c1c(O)c(C)nn(C)c1=O [2-084] | 2 (Herbicidal rate of 20% or more and less than 40%)

Test system: redroot pigweed
Test: Test Example 5: herbicidal effect by foliage application, plastic box (Table 20, symbol N)
Assay type: in vivo, redroot pigweed (Amaranthus retroflexus)
Details: foliage application, 320 g/ha, evaluated three weeks after application
How it was run: as §2

Compound | herbicidal effect on N: redroot pigweed
CCCC(=O)Oc1c(C)nn(C)c(=O)c1-c1c(-c2ccc(C(C)=NOC)cc2)sc2ccc(F)cc12 [2-080] | 5 (Herbicidal rate of 90% or more (almost completely withered))
CCOc1cc(F)ccc1-c1sc2ccc(F)cc2c1-c1c(O)c(C)nn(C)c1=O [2-084] | 5 (Herbicidal rate of 90% or more (almost completely withered))

Test system: Japanese bulrush
Test: Test Example 1: herbicidal activity, application before weed generation under submerged conditions (Table 16, symbol B)
Assay type: in vivo, Japanese bulrush (Schoenoplectus juncoides)
Details: 320 g/ha applied herbicide
How it was run: as §3

Compound | Herbicidal effect on B: Japanese bulrush (grade 0-5)
CCCC(=O)Oc1c(C)nn(C)c(=O)c1-c1c(-c2ccc(C(C)=NOC)cc2)sc2ccc(F)cc12 [2-080] | 5 (Herbicidal rate of 90% or more (almost completely withered))
CCOc1cc(F)ccc1-c1sc2ccc(F)cc2c1-c1c(O)c(C)nn(C)c1=O [2-084] | 1 (Herbicidal rate of 5% or more and less than 20%)

Test system: velvetleaf
Test: Test Example 5: herbicidal effect by foliage application, plastic box (Table 20, symbol M)
Assay type: in vivo, velvetleaf (Abutilon theophrasti)
Details: foliage application, 320 g/ha, evaluated three weeks after application
How it was run: as §2

Compound | herbicidal effect on M: velvetleaf
CCCC(=O)Oc1c(C)nn(C)c(=O)c1-c1c(-c2ccc(C(C)=NOC)cc2)sc2ccc(F)cc12 [2-080] | 5 (Herbicidal rate of 90% or more (almost completely withered))
CCOc1cc(F)ccc1-c1sc2ccc(F)cc2c1-c1c(O)c(C)nn(C)c1=O [2-084] | 5 (Herbicidal rate of 90% or more (almost completely withered))

Test system: lambsquarters
Test: Test Example 4: herbicidal effect by soil treatment (Table 19, symbol O)
Assay type: in vivo, lambsquarters (Chenopodium album)
Details: 320 g/ha
How it was run: (§4)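 Three weeks of greenhouse growth at 25° C. to 30° C. followed a uniform surface spray of water-diluted emulsion at a predetermined herbicide amount. Seeds had been sown beforehand under about 1.5 cm of sterilized diluvial soil. Grading followed criteria set out in an earlier test.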

Compound | herbicidal effect rating, O: lambsquarters
CCCC(=O)Oc1c(C)nn(C)c(=O)c1-c1c(-c2ccc(C(C)=NOC)cc2)sc2ccc(F)cc12 [2-080] | 5 (Herbicidal rate of 90% or more (almost completely withered))
CCOc1cc(F)ccc1-c1sc2ccc(F)cc2c1-c1c(O)c(C)nn(C)c1=O [2-084] | 5 (Herbicidal rate of 90% or more (almost completely withered))

Test system: Italian ryegrass
Test: Test Example 4: herbicidal effect by soil treatment (Table 19, symbol K)
Assay type: in vivo, Italian ryegrass (Lolium multiflorum)
Details: 320 g/ha
How it was run: as §4

Compound | herbicidal effect rating, K: Italian ryegrass
CCCC(=O)Oc1c(C)nn(C)c(=O)c1-c1c(-c2ccc(C(C)=NOC)cc2)sc2ccc(F)cc12 [2-080] | 4 (Herbicidal rate of 70% or more and less than 90%)
CCOc1cc(F)ccc1-c1sc2ccc(F)cc2c1-c1c(O)c(C)nn(C)c1=O [2-084] | 3 (Herbicidal rate of 40% or more and less than 70%)

Test system: persian speedwell
Test: Test Example 4: herbicidal effect by soil treatment (Table 19, symbol R)
Assay type: in vivo, Persian speedwell (Veronica persica)
Details: 320 g/ha
How it was run: as §4

Compound | herbicidal effect rating, R: persian speedwell
CCCC(=O)Oc1c(C)nn(C)c(=O)c1-c1c(-c2ccc(C(C)=NOC)cc2)sc2ccc(F)cc12 [2-080] | 5 (Herbicidal rate of 90% or more (almost completely withered))
CCOc1cc(F)ccc1-c1sc2ccc(F)cc2c1-c1c(O)c(C)nn(C)c1=O [2-084] | 5 (Herbicidal rate of 90% or more (almost completely withered))

Test system: chickweed
Test: Test Example 5: herbicidal effect by foliage application, plastic box (Table 20, symbol P)
Assay type: in vivo, common chickweed (Stellaria media)
Details: foliage application, 320 g/ha, evaluated three weeks after application
How it was run: as §2

Compound | herbicidal effect on P: chickweed
CCCC(=O)Oc1c(C)nn(C)c(=O)c1-c1c(-c2ccc(C(C)=NOC)cc2)sc2ccc(F)cc12 [2-080] | 5 (Herbicidal rate of 90% or more (almost completely withered))
CCOc1cc(F)ccc1-c1sc2ccc(F)cc2c1-c1c(O)c(C)nn(C)c1=O [2-084] | 5 (Herbicidal rate of 90% or more (almost completely withered))

Test system: windgrass
Test: Test Example 4: herbicidal effect by soil treatment (Table 19, symbol L)
Assay type: in vivo, windgrass (Apera spica-venti)
Details: 320 g/ha
How it was run: as §4

Compound | herbicidal effect rating, L: windgrass
CCCC(=O)Oc1c(C)nn(C)c(=O)c1-c1c(-c2ccc(C(C)=NOC)cc2)sc2ccc(F)cc12 [2-080] | 2 (Herbicidal rate of 20% or more and less than 40%)
CCOc1cc(F)ccc1-c1sc2ccc(F)cc2c1-c1c(O)c(C)nn(C)c1=O [2-084] | 1 (Herbicidal rate of 5% or more and less than 20%)

Test system: barnyard grass
Test: Test Example 3: herbicidal effect by foliage application, Wagner pot (Table 18, symbol H)
Assay type: in vivo, barnyard grass (Echinochloa crus-galli)
Details: 320 g/ha
How it was run: as §1

Compound | herbicidal effect on H (barnyard grass), rating 0-5
CCCC(=O)Oc1c(C)nn(C)c(=O)c1-c1c(-c2ccc(C(C)=NOC)cc2)sc2ccc(F)cc12 [2-080] | 5 (Herbicidal rate of 90% or more (almost completely withered))
CCOc1cc(F)ccc1-c1sc2ccc(F)cc2c1-c1c(O)c(C)nn(C)c1=O [2-084] | 5 (Herbicidal rate of 90% or more (almost completely withered))

Test system: late watergrass
Test: Test Example 1: herbicidal activity, application before weed generation under submerged conditions (Table 16, symbol A)
Assay type: in vivo, late watergrass (Echinochloa oryzicola)
Details: 320 g/ha applied herbicide
How it was run: as §3

Compound | Herbicidal effect on A: late watergrass (grade 0-5)
CCCC(=O)Oc1c(C)nn(C)c(=O)c1-c1c(-c2ccc(C(C)=NOC)cc2)sc2ccc(F)cc12 [2-080] | 5 (Herbicidal rate of 90% or more (almost completely withered))
CCOc1cc(F)ccc1-c1sc2ccc(F)cc2c1-c1c(O)c(C)nn(C)c1=O [2-084] | 1 (Herbicidal rate of 5% or more and less than 20%)

Test system: blackgrass
Test: Test Example 5: herbicidal effect by foliage application, plastic box (Table 20, symbol J)
Assay type: in vivo, blackgrass (Alopecurus myosuroides)
Details: foliage application, 320 g/ha, evaluated three weeks after application
How it was run: as §2

Compound | herbicidal effect on J: blackgrass
CCCC(=O)Oc1c(C)nn(C)c(=O)c1-c1c(-c2ccc(C(C)=NOC)cc2)sc2ccc(F)cc12 [2-080] | 5 (Herbicidal rate of 90% or more (almost completely withered))
CCOc1cc(F)ccc1-c1sc2ccc(F)cc2c1-c1c(O)c(C)nn(C)c1=O [2-084] | 5 (Herbicidal rate of 90% or more (almost completely withered))

Test system: windgrass
Test: Test Example 5: herbicidal effect by foliage application, plastic box (Table 20, symbol L)
Assay type: in vivo, windgrass (Apera spica-venti)
Details: foliage application, 320 g/ha, evaluated three weeks after application
How it was run: as §2

Compound | herbicidal effect on L: windgrass
CCCC(=O)Oc1c(C)nn(C)c(=O)c1-c1c(-c2ccc(C(C)=NOC)cc2)sc2ccc(F)cc12 [2-080] | 5 (Herbicidal rate of 90% or more (almost completely withered))
CCOc1cc(F)ccc1-c1sc2ccc(F)cc2c1-c1c(O)c(C)nn(C)c1=O [2-084] | 4 (Herbicidal rate of 70% or more and less than 90%)

Test system: chickweed
Test: Test Example 4: herbicidal effect by soil treatment (Table 19, symbol P)
Assay type: in vivo, common chickweed (Stellaria media)
Details: 320 g/ha
How it was run: as §4

Compound | herbicidal effect rating, P: chickweed
CCCC(=O)Oc1c(C)nn(C)c(=O)c1-c1c(-c2ccc(C(C)=NOC)cc2)sc2ccc(F)cc12 [2-080] | 3 (Herbicidal rate of 40% or more and less than 70%)
CCOc1cc(F)ccc1-c1sc2ccc(F)cc2c1-c1c(O)c(C)nn(C)c1=O [2-084] | 4 (Herbicidal rate of 70% or more and less than 90%)

Test system: southern crabgrass
Test: Test Example 5: herbicidal effect by foliage application, plastic box (Table 20, symbol F)
Assay type: in vivo, southern crabgrass (Digitaria ciliaris)
Details: foliage application, 320 g/ha, evaluated three weeks after application
How it was run: as §2

Compound | herbicidal effect on F: southern crabgrass
CCCC(=O)Oc1c(C)nn(C)c(=O)c1-c1c(-c2ccc(C(C)=NOC)cc2)sc2ccc(F)cc12 [2-080] | 5 (Herbicidal rate of 90% or more (almost completely withered))
CCOc1cc(F)ccc1-c1sc2ccc(F)cc2c1-c1c(O)c(C)nn(C)c1=O [2-084] | 4 (Herbicidal rate of 70% or more and less than 90%)

Test system: wild oat
Test: Test Example 5: herbicidal effect by foliage application, plastic box (Table 20, symbol I)
Assay type: in vivo, wild oat (Avena fatua)
Details: foliage application, 320 g/ha, evaluated three weeks after application
How it was run: as §2

Compound | herbicidal effect on I: wild oat
CCCC(=O)Oc1c(C)nn(C)c(=O)c1-c1c(-c2ccc(C(C)=NOC)cc2)sc2ccc(F)cc12 [2-080] | 5 (Herbicidal rate of 90% or more (almost completely withered))
CCOc1cc(F)ccc1-c1sc2ccc(F)cc2c1-c1c(O)c(C)nn(C)c1=O [2-084] | 4 (Herbicidal rate of 70% or more and less than 90%)
